Measurements: article PMC6539891, “Indole-Based Hydrazones Containing A Sulfonamide Moiety as Selective Inhibitors of Tumor-Associated Human Carbonic Anhydrase Isoforms IX and XII” (International Journal of Molecular Sciences, 2019)

Legend:
hCA II = molecular target: T1, hCA II (Homo sapiens, UniProt P00918); assay: stopped-flow CO2 hydration assay; type: biochemical
T1 construct: gene CA2; recombinant from E. coli; cytosolic isoform
Text: stopped-flow CO2 hydration assay on hCA II

hCA XII = molecular target: T2, hCA XII (Homo sapiens, UniProt O43570); assay: stopped-flow CO2 hydration assay; type: biochemical
T2 construct: gene CA12; recombinant from E. coli; transmembrane isoform with extracellular catalytic domain
T2 sequence (O43570 30-289 limits assumed): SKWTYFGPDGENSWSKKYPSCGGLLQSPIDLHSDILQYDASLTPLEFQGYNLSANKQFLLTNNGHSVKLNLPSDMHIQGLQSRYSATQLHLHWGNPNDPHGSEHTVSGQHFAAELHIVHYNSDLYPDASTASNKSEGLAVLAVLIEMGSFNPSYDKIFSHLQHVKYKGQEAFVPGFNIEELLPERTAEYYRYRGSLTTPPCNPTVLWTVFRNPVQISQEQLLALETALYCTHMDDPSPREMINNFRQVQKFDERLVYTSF
Text: stopped-flow CO2 hydration assay on hCA XII

hCA I = molecular target: T3, hCA I (Homo sapiens, UniProt P00915); assay: stopped-flow CO2 hydration assay; type: biochemical
T3 construct: gene CA1; recombinant from E. coli; cytosolic isoform
T3 sequence (P00915 2-261): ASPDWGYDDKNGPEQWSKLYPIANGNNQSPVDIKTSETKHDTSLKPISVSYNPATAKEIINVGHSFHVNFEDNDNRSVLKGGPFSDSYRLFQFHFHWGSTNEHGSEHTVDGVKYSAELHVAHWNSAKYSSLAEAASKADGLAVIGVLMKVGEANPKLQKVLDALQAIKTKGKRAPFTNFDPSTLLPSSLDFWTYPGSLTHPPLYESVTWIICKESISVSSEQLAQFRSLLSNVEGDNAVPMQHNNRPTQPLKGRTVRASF
Text: stopped-flow CO2 hydration assay on hCA I

hCA IX = molecular target: T4, hCA IX (Homo sapiens, UniProt Q16790); assay: stopped-flow CO2 hydration assay; type: biochemical; conditions: read-out: KI^* (nM) / hCAIX
T4 construct: gene CA9; recombinant from E. coli; transmembrane isoform with extracellular catalytic domain
Text: stopped-flow CO2 hydration assay on hCA IX

[1] = stopped-flow CO2 hydration assay; type: biochemical, Homo sapiens; conditions: read-out: KI^* (nM) / hCA I

Compound | Ki (hCA II) [nM] | Ki (hCA XII) [nM] | Ki (hCA I) [nM] | Ki (hCA IX) [nM] | Ki [1] [nM]
CCCC1CCC(=NNC(=O)c2[nH]c3ccc(S(N)(=O)=O)cc3c2-c2ccccc2)CC1 (stereo not drawn) [compound 20, 2-{[2-(4-Propylcyclohexylidene)hydrazinyl]carbonyl}-3-phenyl-1H-indole-5-sulfonamide] | 796 | 154 | > 10000 | 348 | 
NS(=O)(=O)c1ccc2[nH]c(C(=O)NN=Cc3ccncc3)c(-c3ccccc3)c2c1 [compound 8, 3-Phenyl-2-{[2-(pyridine-4-ylmethylidene)hydrazinyl]carbonyl}-1H-indole-5-sulfonamide] | 3490 | 6.6 | 3130 | 15.8 | 
CC(C)(C)C1CCC(=NNC(=O)c2[nH]c3ccc(S(N)(=O)=O)cc3c2-c2ccccc2)CC1 (stereo not drawn) [compound 22, 2-{[2-(4-tert-buthylcyclohexylidene)hydrazinyl]carbonyl}-3-phenyl-1H-indole-5-sulfonamide] | 3380 | 26.6 | > 10000 | 17.4 | 
CC=NNC(=O)c1[nH]c2ccc(S(N)(=O)=O)cc2c1-c1ccccc1 [compound 11, 2-[(2-Ethylidenehydrazinyl)carbonyl]-3-phenyl-1H-indole-5-sulfonamide] | 5870 | 62.6 | 4060 | 12.9 | 
NS(=O)(=O)c1ccc2[nH]c(C(=O)NN=Cc3c[nH]c4ccccc34)c(-c3ccccc3)c2c1 [compound 9, 3-Phenyl-2-{[2-(1H-indole-3-ylmethylidene)hydrazinyl]carbonyl}-1H-indole-5-sulfonamide] |  | 77.3 | > 10000 | 207 | > 10000
Cn1cccc1C=NNC(=O)c1[nH]c2ccc(S(N)(=O)=O)cc2c1-c1ccccc1 [compound 6, 2-({2-[(1-Methyl-1H-pyrrol-2-yl)methylidene]hydrazinyl}carbonyl)-3-phenyl-1H-indole-5-sulfonamide] | > 10000 | 64.4 | 9570 | 44.3 | 
CN1CCC(=NNC(=O)c2[nH]c3ccc(S(N)(=O)=O)cc3c2-c2ccccc2)CC1 [compound 23, 2-{[2-(1-Methylpiperidine-4-ylidene)hydrazinyl]carbonyl}-3-phenyl-1H-indole-5-sulfonamide] | 309 | 62.9 | > 10000 | 9.2 | 
CC1CCC(=NNC(=O)c2[nH]c3ccc(S(N)(=O)=O)cc3c2-c2ccccc2)CC1 (stereo not drawn) [compound 18, 2-{[2-(4-Methylcyclohexylidene)hydrazinyl]carbonyl}-3-phenyl-1H-indole-5-sulfonamide] | 8940 | 139 | > 10000 | 419 | 
CCC(C)=NNC(=O)c1[nH]c2ccc(S(N)(=O)=O)cc2c1-c1ccccc1 [compound 13, 2-{[2-(Butan-2-ylidene)hydrazinyl]carbonyl}-3-phenyl-1H-indole-5-sulfonamide] | 8030 | 92.4 | 9620 | 42.1 | 
CC(CC(C)C)=NNC(=O)c1[nH]c2ccc(S(N)(=O)=O)cc2c1-c1ccccc1 [compound 15, 2-{[2-(4-Methylpentan-2-ylidene)hydrazinyl]carbonyl}-3-phenyl-1H-indole-5-sulfonamide] | 6560 | 27.9 | 8650 | 188 | 
NS(=O)(=O)c1ccc2[nH]c(C(=O)NN=C3CCN(Cc4ccccc4)CC3)c(-c3ccccc3)c2c1 [compound 24, 2-{[2-(1-Benzylpiperidine-4-ylidene)hydrazinyl]carbonyl}-3-phenyl-1H-indole-5-sulfonamide] | 372 | 9.4 | 7380 | 11.7 | 
NS(=O)(=O)c1ccc2[nH]c(C(=O)NN=C3CCCC3)c(-c3ccccc3)c2c1 [compound 16, 2-[(2-Cyclopentylidenehydrazinyl)carbonyl]-3-phenyl-1H-indole-5-sulfonamide] | 5960 | 97.2 | > 10000 | 476 | 
NS(=O)(=O)c1ccc2[nH]c(C(=O)NN=C3CCCCC3)c(-c3ccccc3)c2c1 [compound 17, 2-[(2-Cyclohexylidenehydrazinyl)carbonyl]-3-phenyl-1H-indole-5-sulfonamide] | 5870 | 86.2 | > 10000 | 191 | 
CC(C)=NNC(=O)c1[nH]c2ccc(S(N)(=O)=O)cc2c1-c1ccccc1 [compound 12, 3-Phenyl-2-{[2-(propan-2-ylidene)hydrazinyl]carbonyl}-1H-indole-5-sulfonamide] | 8500 | 87.9 | 9560 | 47.9 | 
C=NNC(=O)c1[nH]c2ccc(S(N)(=O)=O)cc2c1-c1ccccc1 [compound 10, 2-[(2-Methylidenehydrazinyl)carbonyl]-3-phenyl-1H-indole-5-sulfonamide] | 9370 | 23.8 | 7480 | 32.9 | 
CCC(CC)=NNC(=O)c1[nH]c2ccc(S(N)(=O)=O)cc2c1-c1ccccc1 [compound 14, 2-{[2-(Pentan-3-ylidene)hydrazinyl]carbonyl}-3-phenyl-1H-indole-5-sulfonamide] | 6620 | 9.4 | 9250 | 43.7 | 
CCC1CCC(=NNC(=O)c2[nH]c3ccc(S(N)(=O)=O)cc3c2-c2ccccc2)CC1 (stereo not drawn) [compound 19, 2-{[2-(4-Ethylcyclohexylidene)hydrazinyl]carbonyl}-3-phenyl-1H-indole-5-sulfonamide] | 1280 | 220 | > 10000 | 475 | 
NS(=O)(=O)c1ccc2[nH]c(C(=O)NN=Cc3cccs3)c(-c3ccccc3)c2c1 [compound 4, 3-Phenyl-2-{[2-(thiophene-2-ylmethylidene)hydrazinyl]carbonyl}-1H-indole-5-sulfonamide] | > 10000 | 4.5 | 6670 | 47.4 | 
NS(=O)(=O)c1ccc2[nH]c(C(=O)NN=C3CCC(c4ccccc4)CC3)c(-c3ccccc3)c2c1 (stereo not drawn) [compound 21, 2-{[2-(4-Phenylcyclohexylidene)hydrazinyl]carbonyl}-3-phenyl-1H-indole-5-sulfonamide] | 831 | 14.8 | > 10000 | 32.3 | 
NS(=O)(=O)c1ccc2[nH]c(C(=O)NN=Cc3ccc(Br)s3)c(-c3ccccc3)c2c1 [compound 5, 2-({2-[(5-Bromothiophene-2-yl)methylidene]hydrazinyl}carbonyl)-3-phenyl-1H-indole-5-sulfonamide] | > 10000 | 75.1 | 9410 | 48.4 | 
NS(=O)(=O)c1ccc2[nH]c(C(=O)NN=Cc3cccnc3)c(-c3ccccc3)c2c1 [compound 7, 3-Phenyl-2-{[2-(pyridine-3-ylmethylidene)hydrazinyl]carbonyl}-1H-indole-5-sulfonamide] | 8910 | 1.4 | 8590 | 35.8 | 
